Data reported in the supplement of paper PMC10307832.

How the values were obtained:
Experiment in all cases: relative viability (nuclei count vs DMSO), 5 days (fraction); higher = more cells survive
[1] = compound: CC[C@@H](C)CNCC(=O)N1CCC2=C([C@@H]1COC3=CC=CC(=C3)C)C=CS2 [RU-SKI 43] + COc1cc2c(Oc3ccc(NC(=O)C4(C(=O)Nc5ccc(F)cc5)CC4)cc3F)ccnc2cc1OCCCN1CCOCC1 [Foretinib] (partner 0.25 µM)
Outline: (§1)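 Five library-drug doses in √10 steps were combined with a fixed anchor-drug dose, or a single drug was given alone, by pin tool to lung cancer cell lines in 1536-well plates the day after seeding. Nuclei were stained and counted after 5 days. Relative viability is the nuclei count in treated wells over that in vehicle wells, taken as the median of duplicate plates.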

[2] = compound: CCc1c2c(nc3ccc(OC(=O)N4CCC(N5CCCCC5)CC4)cc13)-c1cc3c(c(=O)n1C2)COC(=O)[C@]3(O)CC [Irinotecan] + Nc1nc2[nH]cc(CCc3ccc(C(=O)N[C@@H](CCC(=O)O)C(=O)O)cc3)c2c(=O)[nH]1 [Pemetrexed] (partner 0.2 µM)
Outline: as §1

[3] = compound: Cn1cc(-c2cnc3ccc4ccc(CS(=O)(=O)NCc5ccccn5)cc4c(=O)c3c2)cn1 [MK-8033] + Cc1cc(Nc2cc(N3CCN(C)CC3)nc(Sc3ccc(NC(=O)C4CC4)cc3)n2)n[nH]1 [Tozasertib] (partner 0.1 µM)
Outline: as §1

[4] = compound: Cn1cc(-c2cnc3ccc4ccc(CS(=O)(=O)NCc5ccccn5)cc4c(=O)c3c2)cn1 [MK-8033] + Nc1ncn([C@H]2C[C@H](O)[C@@H](CO)O2)c(=O)n1 [Decitabine] (partner 2 µM)
Outline: as §1

Cell Line	relative viability ([1]; first compound 0.1 µM)	relative viability ([1]; first compound 0.3162 µM)	relative viability ([1]; first compound 1 µM)	relative viability ([1]; first compound 3.162 µM)	relative viability ([1]; first compound 10 µM)	relative viability ([2]; first compound 0.6325 µM)	relative viability ([2]; first compound 2 µM)	relative viability ([2]; first compound 6.325 µM)	relative viability ([2]; first compound 20 µM)	relative viability ([3]; first compound 0.02 µM)	relative viability ([3]; first compound 0.06325 µM)	relative viability ([3]; first compound 0.2 µM)	relative viability ([3]; first compound 0.6325 µM)	relative viability ([3]; first compound 2 µM)	relative viability ([4]; first compound 0.02 µM)	relative viability ([4]; first compound 0.06325 µM)	relative viability ([4]; first compound 0.2 µM)	relative viability ([4]; first compound 0.6325 µM)	relative viability ([4]; first compound 2 µM)
COR-L 105	0.995	0.903	1.18	1.04	0.736	1.35	0.93	0.649	0.442	0.311	0.377	0.338	0.349	0.345	0.659	0.556	0.619	0.689	0.691
BEN	0.789	0.548	0.992	0.53	0.705	0.535	0.828	0.415	0.485	0.544	0.491	0.461	0.492	0.545	0.805	0.702	0.655	0.71	0.761
NCI-H1993	0.747	0.889	0.786	0.801	0.729		0.637	0.545	0.506	0.564	0.525	0.561	0.525	0.583	0.488	0.624	0.557	0.563	0.546
NCI-H838	1.15	0.994	0.987	1.21	0.964	0.232	0.25	0.24	0.25	0.297	0.272	0.281	0.266	0.236	0.458	0.442	0.476	0.469	0.445
NCI-H1755	0.935	1.07	0.975	0.979	0.919	0.383	0.45	0.39	0.448	0.552	0.473	0.536	0.537	0.536	0.743	0.673	0.769	0.64	0.691
NCI-H1666	0.922	0.96	0.926	0.773	0.848	0.762	0.766	0.676	0.63	0.588	0.587	0.589	0.648	0.614	0.792	0.746	0.728	0.766	0.736
NCI-H2085	0.928	0.772	0.91	0.93	0.934	0.661	0.915	0.826	0.468	0.812	0.708	0.73	0.841	0.593	0.53	0.571	0.475	0.544	0.559
COR-L23	0.914	1.19	1.24	1.04	0.842	0.181	0.178	0.204	0.165	0.198	0.187	0.164	0.164	0.117	0.447	0.361	0.465	0.455	0.443
NCI-H647	1.39	1.42	1.25	1.17	1.25	0.165	0.154	0.153	0.105	0.276	0.212	0.258	0.0983	0.282	0.33	0.362	0.382	0.372	0.305
NCI-H1793	0.602	0.68	0.738	0.762	0.502		0.699	0.395	0.253	0.332	0.325	0.34	0.416	0.23	0.486		0.51	0.379	0.543
LCLC-97TM1	0.945	0.938	1.05	1	1.04	0.124	0.196	0.129	0.133	0.2	0.237	0.241	0.223	0.216	0.218	0.207		0.209	0.211
HOP-62	1.1	1.2	1.15	1.24	1.13	0.0967	0.337	0.17	0.166	0.406	0.339	0.359	0.352	0.344	0.222	0.234	0.261	0.189	0.199
NCI-H520	0.816	0.892	0.812	0.859	0.539	0.509	0.277	0.273	0.167	0.408	0.453	0.433	0.485	0.469	0.525	0.485	0.527	0.535	0.465
NCI-H1734	0.844	0.913	0.938	0.781	0.656		0.385	0.222	0.141	0.243	0.215	0.3	0.261	0.242	0.562	0.463	0.478	0.504	0.481
SW 900	0.807	0.873	1.22	0.864	0.77		0.538	0.36	0.406	0.583	0.645	0.51	0.615	0.341	0.483	0.328	0.496	0.549	0.41
